Our source for the IC50 and melting point values is patent US8030339B2, “Imidazole derivatives for the treatment of anxiety and related diseases” (Neurosearch A/S, priority 2005, dated 2011).

The target in series [1] is benzodiazepine binding site on GABAA receptors. The series is described as follows: In vitro inhibition of 3H-flunitrazepam (3H-FNM) binding. Also on record: species or system rat. The conditions noted are these: cerebral cortex membranes from male Wistar rats; 3H-FNM 1 nM; 40 min at 2° C. The protocol: In Vitro Inhibition of […] (3H-FNM) Binding
The GABA recognition site and the benzodiazepine modulatory unit can selectively be labelled with ^3H-flunitrazepam.
Preparations are performed at 0-4° C. unless otherwise indicated. Cerebral cortex from male Wistar rats (150-200 g) is homogenised for 5-10 sec in 20 ml Tris-HCl (30 mM, pH 7.4) using an Ultra-Turrax homogeniser. The suspension is centrifuged at 27,000×g for 15 min and the pellet is washed three times with buffer (centrifuged at 27,000×g for 10 min). The washed pellet is homogenized in 20 ml of buffer and incubated on a water bath (37° C.) for 30 min to remove endogenous GABA and then centrifuged for 10 min at 27,000×g. The pellet is then homogenized in buffer and centrifuged for 10 min at 27,000×g. The final pellet is resuspended in 30 ml buffer and the preparation is frozen and stored at −20° C.
The membrane preparation is thawed and centrifuged at 2° C. for 10 min at 27,000×g. The pellet is washed twice with 20 ml 50 mM Tris-citrate, pH 7.1 using an Ultra-Turrax homogeniser and centrifuged for 10 min at 27,000×g. The final pellet is resuspended in 50 mM Tris-citrate, pH 7.1 (500 ml buffer per g of original tissue), and then used for binding assays. Aliquots of 0.5 ml tissue are added to 25 μl of test solution and 25 μl of ^3H-FNM (1 nM, final concentration), mixed and incubated for 40 min at 2° C. Non-specific binding is determined using Clonazepam (1 μM, final concentration). After incubation the samples are added 5 ml of ice-cold buffer and poured directly onto Whatman GF/C glass fibre filters under suction and immediately washed with 5 ml ice-cold buffer. The amount of radioactivity on the filters is determined by conventional liquid scintillation counting. Specific binding is total binding minus non-specific binding.
25-75% inhibition of specific binding must be obtained, before calculation of an IC50.
The test value will be given as IC50 (the concentration (μM) of the test substance which inhibits the specific binding of ^3H-FNM by 50%).
Co is specific binding in control assays, and […]

With `O=C(c1ccccc1)c1cn(-c2cccc(-c3ccccc3)c2)cn1` [Compound 8, (1-Biphenyl-3-yl-1H-imidazol-4-yl)-phenyl-methanone], in series [1], the IC50 (as a rule, the concentration needed to halve the response being measured) was 36 nM.

With `O=C(c1cn(-c2cccc(-c3ccccc3)c2)cn1)n1cccn1` [Compound 178, (1-Biphenyl-3-yl-1H-imidazol-4-yl)-pyrazol-1-yl-methanone], the melting point (commonly the temperature, or range, at which the solid turns liquid) is 124 to 127 °C. Besides, the half-inhibitory concentration (IC50) in series [1] was 5.9 nM.

For `COc1ccc(F)cc1-c1cccc(-n2cnc(C(=O)c3ccccn3)c2)c1` [Compound 14, [1-(5′-Fluoro-2′-methoxy-biphenyl-3-yl)-1H-imidazol-4-yl]-pyridin-2-yl-methanone], in series [1], the IC50 came to 2.7 nM.
